Results as given in patent US10231954B2, “Neurodegenerative therapies” (LYTIX BIOPHARMA AS, priority 2014, dated 2019).
Read-outs that look alike come from different tables or passages of the source.

Key:
Assay type in all cases: biochemical
[1] = biological target: MST4 (Homo sapiens, UniProt Q9P289); assay: Kinase profiling MST4; conditions: for remaining activity at 100 µM: read-out: residual kinase activity, MST4
Text: (§1) Any value less that 25 is considered to be highly significant inhibition.

[2] = biological target: T1, ZAP70 (Homo sapiens, UniProt P43403); assay: Kinase profiling ZAP70; conditions: for remaining activity at 100 µM: read-out: residual kinase activity, ZAP70
T1 sequence (P43403 1-619): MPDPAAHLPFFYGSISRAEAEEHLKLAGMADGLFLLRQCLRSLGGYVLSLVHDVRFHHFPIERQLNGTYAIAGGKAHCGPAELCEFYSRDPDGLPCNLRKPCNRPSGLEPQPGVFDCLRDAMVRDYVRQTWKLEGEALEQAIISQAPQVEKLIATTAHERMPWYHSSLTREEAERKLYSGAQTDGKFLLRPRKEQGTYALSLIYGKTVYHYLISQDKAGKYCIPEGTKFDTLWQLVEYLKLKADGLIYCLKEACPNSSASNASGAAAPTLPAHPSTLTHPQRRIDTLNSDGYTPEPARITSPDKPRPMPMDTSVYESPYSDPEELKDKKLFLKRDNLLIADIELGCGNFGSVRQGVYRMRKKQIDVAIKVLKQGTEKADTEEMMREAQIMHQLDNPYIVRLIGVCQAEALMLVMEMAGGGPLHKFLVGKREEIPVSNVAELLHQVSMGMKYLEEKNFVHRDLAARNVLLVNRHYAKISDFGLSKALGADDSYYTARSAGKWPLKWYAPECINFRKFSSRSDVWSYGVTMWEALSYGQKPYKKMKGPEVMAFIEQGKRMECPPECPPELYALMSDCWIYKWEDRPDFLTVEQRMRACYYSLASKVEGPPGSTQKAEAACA
Text: as §1

[3] = biological target: MELK (Homo sapiens, UniProt Q14680); assay: Kinase profiling MELK; conditions: for remaining activity at 100 µM: read-out: residual kinase activity, MELK
Chain of MELK (Q14680 whole entry, species assumed): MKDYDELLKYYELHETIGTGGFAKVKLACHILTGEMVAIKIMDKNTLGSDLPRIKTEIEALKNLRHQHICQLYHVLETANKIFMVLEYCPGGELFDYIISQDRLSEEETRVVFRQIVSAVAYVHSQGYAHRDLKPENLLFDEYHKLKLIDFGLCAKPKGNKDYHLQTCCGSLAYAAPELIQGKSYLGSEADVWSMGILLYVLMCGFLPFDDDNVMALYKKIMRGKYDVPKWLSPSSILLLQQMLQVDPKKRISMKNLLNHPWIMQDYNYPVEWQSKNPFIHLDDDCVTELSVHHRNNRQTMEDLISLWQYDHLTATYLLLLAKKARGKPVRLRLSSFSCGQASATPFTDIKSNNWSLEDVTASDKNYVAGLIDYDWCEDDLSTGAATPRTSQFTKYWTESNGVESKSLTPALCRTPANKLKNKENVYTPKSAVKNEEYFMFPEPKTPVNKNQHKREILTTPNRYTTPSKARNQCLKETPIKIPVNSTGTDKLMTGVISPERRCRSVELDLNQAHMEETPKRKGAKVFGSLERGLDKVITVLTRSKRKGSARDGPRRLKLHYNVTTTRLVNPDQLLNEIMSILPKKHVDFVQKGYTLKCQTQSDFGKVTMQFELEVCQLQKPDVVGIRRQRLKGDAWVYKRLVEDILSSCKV
Text: as §1

[4] = biological target: T2, IKKb (Homo sapiens, UniProt O14920); assay: Kinase profiling IKKb; conditions: for remaining activity at 100 µM: read-out: residual kinase activity, IKKb
T2 sequence (O14920 1-756): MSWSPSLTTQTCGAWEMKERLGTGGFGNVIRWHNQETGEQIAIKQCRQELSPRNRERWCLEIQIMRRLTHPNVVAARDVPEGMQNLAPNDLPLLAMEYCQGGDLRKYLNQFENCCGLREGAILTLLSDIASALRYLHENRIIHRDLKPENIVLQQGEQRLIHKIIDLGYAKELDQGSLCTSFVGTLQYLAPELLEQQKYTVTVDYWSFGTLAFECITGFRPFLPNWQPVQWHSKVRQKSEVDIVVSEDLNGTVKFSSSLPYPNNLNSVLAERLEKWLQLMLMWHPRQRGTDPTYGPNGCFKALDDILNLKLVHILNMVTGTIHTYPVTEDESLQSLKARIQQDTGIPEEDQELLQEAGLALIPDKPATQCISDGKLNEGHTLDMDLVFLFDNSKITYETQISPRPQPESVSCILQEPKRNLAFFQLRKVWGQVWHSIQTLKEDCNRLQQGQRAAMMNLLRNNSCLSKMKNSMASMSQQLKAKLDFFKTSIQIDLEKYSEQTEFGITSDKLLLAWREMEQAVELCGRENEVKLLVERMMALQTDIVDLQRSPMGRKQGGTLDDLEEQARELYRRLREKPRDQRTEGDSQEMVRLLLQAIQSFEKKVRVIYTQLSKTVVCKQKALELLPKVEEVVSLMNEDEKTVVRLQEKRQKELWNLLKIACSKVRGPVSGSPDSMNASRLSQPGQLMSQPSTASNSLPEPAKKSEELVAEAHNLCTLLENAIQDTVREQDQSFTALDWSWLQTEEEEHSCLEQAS
Text: as §1

[5] = biological target: MARK2 (Homo sapiens, UniProt Q7KZI7); assay: Kinase profiling MARK2; conditions: for remaining activity at 100 µM: read-out: residual kinase activity, MARK2
Chain of MARK2 (Q7KZI7 whole entry, species assumed): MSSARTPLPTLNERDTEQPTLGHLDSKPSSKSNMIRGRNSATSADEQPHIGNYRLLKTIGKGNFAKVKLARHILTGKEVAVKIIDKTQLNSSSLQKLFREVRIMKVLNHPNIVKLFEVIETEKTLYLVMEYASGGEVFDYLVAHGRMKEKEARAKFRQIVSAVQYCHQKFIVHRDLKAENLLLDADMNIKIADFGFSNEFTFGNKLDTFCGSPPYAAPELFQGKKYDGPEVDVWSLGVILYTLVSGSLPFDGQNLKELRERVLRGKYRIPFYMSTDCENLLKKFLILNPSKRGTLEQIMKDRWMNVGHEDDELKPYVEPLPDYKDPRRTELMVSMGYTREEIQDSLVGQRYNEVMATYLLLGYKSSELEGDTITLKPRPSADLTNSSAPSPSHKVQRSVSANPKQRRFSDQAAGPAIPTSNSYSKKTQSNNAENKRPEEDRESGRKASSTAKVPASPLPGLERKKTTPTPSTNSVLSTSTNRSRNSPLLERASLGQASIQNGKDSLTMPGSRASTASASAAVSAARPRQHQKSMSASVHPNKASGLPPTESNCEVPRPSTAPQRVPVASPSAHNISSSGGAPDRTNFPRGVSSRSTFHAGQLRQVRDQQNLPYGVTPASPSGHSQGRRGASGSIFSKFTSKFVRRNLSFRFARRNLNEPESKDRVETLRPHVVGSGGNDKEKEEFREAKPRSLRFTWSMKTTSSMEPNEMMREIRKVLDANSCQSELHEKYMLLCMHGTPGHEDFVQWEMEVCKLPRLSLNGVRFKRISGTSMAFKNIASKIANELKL
Text: as §1

[6] = biological target: EPH-A4 (Homo sapiens, UniProt P54764); assay: Kinase profiling EPH-A4; conditions: for remaining activity at 100 µM: read-out: residual kinase activity, EPH-A4
Chain of EPH-A4 (P54764 20-986, species assumed): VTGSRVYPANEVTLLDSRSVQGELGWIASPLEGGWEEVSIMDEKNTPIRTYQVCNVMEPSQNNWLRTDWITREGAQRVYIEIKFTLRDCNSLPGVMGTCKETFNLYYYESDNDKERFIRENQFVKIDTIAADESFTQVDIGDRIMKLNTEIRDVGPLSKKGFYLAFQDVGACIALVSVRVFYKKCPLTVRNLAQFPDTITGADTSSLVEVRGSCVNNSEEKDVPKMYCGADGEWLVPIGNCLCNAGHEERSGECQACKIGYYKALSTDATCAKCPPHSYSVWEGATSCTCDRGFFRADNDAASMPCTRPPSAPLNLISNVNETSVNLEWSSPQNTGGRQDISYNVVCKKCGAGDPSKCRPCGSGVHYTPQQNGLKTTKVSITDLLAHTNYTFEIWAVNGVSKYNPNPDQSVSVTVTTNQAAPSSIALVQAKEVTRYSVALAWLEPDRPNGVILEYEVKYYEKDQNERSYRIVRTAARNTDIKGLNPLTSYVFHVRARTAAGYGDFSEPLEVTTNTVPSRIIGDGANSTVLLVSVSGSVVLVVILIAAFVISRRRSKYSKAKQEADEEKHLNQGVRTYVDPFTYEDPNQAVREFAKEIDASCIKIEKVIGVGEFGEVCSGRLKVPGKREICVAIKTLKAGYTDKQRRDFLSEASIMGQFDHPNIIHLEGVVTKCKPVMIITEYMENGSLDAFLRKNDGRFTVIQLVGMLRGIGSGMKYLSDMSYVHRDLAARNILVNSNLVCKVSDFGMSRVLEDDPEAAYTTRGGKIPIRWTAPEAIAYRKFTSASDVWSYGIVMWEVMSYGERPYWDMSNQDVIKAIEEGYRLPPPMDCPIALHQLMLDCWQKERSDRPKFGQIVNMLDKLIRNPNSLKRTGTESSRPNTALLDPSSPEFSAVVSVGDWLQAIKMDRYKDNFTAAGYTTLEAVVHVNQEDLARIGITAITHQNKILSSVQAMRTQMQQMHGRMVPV
Text: as §1

[7] = biological target: CK1γ2 (Homo sapiens, UniProt P78368); assay: Kinase profiling CK1γ2; conditions: for remaining activity at 100 µM: read-out: residual kinase activity, CK1γ2
Chain of CK1γ2 (P78368 whole entry): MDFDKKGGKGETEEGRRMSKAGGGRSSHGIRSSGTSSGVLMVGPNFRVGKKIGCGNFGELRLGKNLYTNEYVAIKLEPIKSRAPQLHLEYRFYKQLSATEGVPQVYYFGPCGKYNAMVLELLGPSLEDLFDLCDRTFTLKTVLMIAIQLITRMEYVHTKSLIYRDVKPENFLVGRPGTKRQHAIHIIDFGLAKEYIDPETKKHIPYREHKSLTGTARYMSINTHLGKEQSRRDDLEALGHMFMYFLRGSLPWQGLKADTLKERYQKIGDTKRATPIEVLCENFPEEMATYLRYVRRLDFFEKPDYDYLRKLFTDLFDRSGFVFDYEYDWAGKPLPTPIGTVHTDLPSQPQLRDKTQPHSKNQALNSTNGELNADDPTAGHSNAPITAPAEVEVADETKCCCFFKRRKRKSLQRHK
Text: as §1

[8] = biological target: YES1 (Homo sapiens, UniProt P07947); assay: Kinase profiling YES1; conditions: for remaining activity at 100 µM: read-out: residual kinase activity, YES1
Chain of YES1 (P07947 whole entry, species assumed): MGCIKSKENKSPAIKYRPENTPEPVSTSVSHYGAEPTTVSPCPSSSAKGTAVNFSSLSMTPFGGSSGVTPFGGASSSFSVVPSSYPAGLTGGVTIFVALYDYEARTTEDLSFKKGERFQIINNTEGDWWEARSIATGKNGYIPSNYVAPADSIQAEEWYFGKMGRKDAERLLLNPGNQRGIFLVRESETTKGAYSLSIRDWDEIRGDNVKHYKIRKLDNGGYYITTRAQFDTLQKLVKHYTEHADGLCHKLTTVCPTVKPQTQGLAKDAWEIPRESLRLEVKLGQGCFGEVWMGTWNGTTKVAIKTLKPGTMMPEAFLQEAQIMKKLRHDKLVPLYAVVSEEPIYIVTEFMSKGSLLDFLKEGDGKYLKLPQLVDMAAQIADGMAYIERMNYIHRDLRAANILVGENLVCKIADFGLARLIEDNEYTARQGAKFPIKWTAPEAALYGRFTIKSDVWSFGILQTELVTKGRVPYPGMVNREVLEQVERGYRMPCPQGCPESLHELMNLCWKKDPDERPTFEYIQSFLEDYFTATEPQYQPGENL
Text: as §1

[9] = biological target: CDK2-Cyclin A (Homo sapiens, UniProt P24941); assay: Kinase profiling CDK2-Cyclin A; conditions: for remaining activity at 100 µM: read-out: residual kinase activity, CDK2-Cyclin A
Text: as §1

[10] = biological target: T3, MAP4K3 (Homo sapiens, UniProt Q8IVH8); assay: Kinase profiling MAP4K3; conditions: 100 micromolar inhibitor concentration, 100 is no change; for remaining activity at 100 µM: read-out: residual kinase activity, MAP4K3
T3 sequence (Q8IVH8 1-894): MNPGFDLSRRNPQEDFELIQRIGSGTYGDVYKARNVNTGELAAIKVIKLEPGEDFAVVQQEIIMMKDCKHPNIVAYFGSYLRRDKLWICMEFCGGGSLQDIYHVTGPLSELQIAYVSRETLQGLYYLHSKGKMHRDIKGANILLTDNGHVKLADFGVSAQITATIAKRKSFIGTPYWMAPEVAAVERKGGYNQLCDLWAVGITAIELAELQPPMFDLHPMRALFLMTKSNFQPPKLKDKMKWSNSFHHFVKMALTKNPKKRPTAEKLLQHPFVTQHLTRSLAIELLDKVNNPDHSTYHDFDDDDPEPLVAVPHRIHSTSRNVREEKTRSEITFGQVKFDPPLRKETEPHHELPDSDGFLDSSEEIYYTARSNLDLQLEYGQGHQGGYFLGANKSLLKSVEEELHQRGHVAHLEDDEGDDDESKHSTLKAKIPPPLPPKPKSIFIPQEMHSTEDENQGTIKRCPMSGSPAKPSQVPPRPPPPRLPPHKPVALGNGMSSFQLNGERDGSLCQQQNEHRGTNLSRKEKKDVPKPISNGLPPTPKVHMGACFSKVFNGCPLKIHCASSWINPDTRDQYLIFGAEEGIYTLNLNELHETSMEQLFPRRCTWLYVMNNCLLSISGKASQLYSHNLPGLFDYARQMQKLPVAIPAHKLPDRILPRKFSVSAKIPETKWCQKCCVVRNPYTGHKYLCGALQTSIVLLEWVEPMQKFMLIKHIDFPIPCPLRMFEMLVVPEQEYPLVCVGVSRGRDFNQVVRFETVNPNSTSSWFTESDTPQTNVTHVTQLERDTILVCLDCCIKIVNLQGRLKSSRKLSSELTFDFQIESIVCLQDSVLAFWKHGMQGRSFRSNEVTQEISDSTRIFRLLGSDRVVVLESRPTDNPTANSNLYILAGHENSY
Text: as §1

[11] = biological target: ERK5 (Homo sapiens, UniProt Q13164); assay: Kinase profiling ERK5; conditions: 100 micromolar inhibitor concentration; 100 is no change
Chain of ERK5 (Q13164 whole entry, species assumed): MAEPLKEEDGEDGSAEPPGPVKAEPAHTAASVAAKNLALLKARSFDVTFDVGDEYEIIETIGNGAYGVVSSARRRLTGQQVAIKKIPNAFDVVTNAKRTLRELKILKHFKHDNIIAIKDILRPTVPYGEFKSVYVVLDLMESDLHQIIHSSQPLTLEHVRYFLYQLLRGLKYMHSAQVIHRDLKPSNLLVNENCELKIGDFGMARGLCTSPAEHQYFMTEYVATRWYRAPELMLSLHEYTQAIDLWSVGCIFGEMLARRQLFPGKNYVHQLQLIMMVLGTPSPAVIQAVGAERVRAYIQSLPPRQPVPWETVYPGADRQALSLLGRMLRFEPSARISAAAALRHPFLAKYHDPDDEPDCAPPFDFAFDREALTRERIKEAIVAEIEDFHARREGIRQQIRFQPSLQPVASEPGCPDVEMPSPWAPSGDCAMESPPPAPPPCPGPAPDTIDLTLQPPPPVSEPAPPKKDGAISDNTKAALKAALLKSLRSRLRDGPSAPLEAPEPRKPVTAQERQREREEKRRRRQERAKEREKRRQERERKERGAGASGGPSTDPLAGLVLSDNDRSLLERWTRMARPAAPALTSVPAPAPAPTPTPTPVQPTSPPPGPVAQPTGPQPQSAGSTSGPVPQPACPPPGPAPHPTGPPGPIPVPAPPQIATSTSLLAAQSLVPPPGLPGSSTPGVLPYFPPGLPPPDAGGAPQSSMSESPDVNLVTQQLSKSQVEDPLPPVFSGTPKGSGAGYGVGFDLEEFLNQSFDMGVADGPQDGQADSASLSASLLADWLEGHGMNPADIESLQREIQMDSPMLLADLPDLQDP
Text: as §1

[12] = 100 micromolar inhibitor concentration, 100 is no change

Chain of MST4 (Q9P289 whole entry, species assumed): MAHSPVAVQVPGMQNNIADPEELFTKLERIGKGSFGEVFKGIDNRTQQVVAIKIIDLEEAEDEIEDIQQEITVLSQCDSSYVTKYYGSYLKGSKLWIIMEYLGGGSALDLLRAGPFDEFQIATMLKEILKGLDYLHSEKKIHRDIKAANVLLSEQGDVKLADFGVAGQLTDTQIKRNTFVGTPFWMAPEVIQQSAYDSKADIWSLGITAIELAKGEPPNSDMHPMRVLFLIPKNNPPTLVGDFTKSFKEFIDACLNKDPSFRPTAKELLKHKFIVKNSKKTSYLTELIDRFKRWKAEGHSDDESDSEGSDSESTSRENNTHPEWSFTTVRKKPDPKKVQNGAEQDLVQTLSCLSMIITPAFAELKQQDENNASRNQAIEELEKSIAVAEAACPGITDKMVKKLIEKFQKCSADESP

SMILES	residual kinase activity, MST4 [1, 12]	residual kinase activity, MAP4K3 [10]	residual kinase activity, ZAP70 [2, 12]	residual kinase activity, MELK [3, 12]	residual kinase activity, IKKb [4, 12]	residual kinase activity, ERK5 [11]	residual kinase activity, MARK2 [5, 12]	residual kinase activity, EPH-A4 [6, 12]	residual kinase activity, CK1γ2 [7, 12]	residual kinase activity, YES1 [8, 12]	residual kinase activity, CDK2-Cyclin A [9, 12]	other results
CC(=O)Nc1nc2cc(O)ccc2s1 [Compound 01-66, N-(5-hydroxybenzo[d]thiazol-2-yl)acetamide]												remaining activity at 100 µM [1]: 84%; remaining activity at 100 µM [2]: 113%; remaining activity at 100 µM [3]: 17%; remaining activity at 100 µM [4]: 62%; remaining activity at 100 µM [5]: 63%; remaining activity at 100 µM [6]: 73%; remaining activity at 100 µM [7]: 6%; remaining activity at 100 µM [8]: 72%; remaining activity at 100 µM [9]: 71%
CC(=O)Nc1nc2ccc(O)cc2s1 [Compound 01-71]												remaining activity at 100 µM [1, 12]: 70%; remaining activity at 100 µM [2, 12]: 126%; remaining activity at 100 µM [3, 12]: 24%; remaining activity at 100 µM [4, 12]: 63%; remaining activity at 100 µM [5, 12]: 54%; remaining activity at 100 µM [6, 12]: 77%; remaining activity at 100 µM [7, 12]: 10%; remaining activity at 100 µM [8, 12]: 59%; remaining activity at 100 µM [9, 12]: 30%
O=C(Nc1nc2cc(O)ccc2s1)c1cccnc1 [Compound 03-33]	103	69	110	29	81	58	102	92	25	91	92	
O=C(Nc1nc2cc(O)ccc2s1)c1ccccn1 [Compound 03-13]	76	67	105	22	88	51	84	89	83	60	91	
CC(=O)Nc1nc2cc(C)ccc2s1 [Compound 03-76]	103	80	110	58	59	62	97	91	54	104	72	
O=C(Nc1nc2ccc(O)cc2s1)c1ccncc1 [Compound 08-42]	79	48	92	22	82	41	67	92	62	79	72	
CC(=O)Nc1ccccc1C(=O)Nc1nc2ccc(O)cc2s1 [Compound 08-39]						47						
O=C(Nc1nc2ccc(O)cc2s1)c1ccccn1 [Compound 03-12]	80	54	91	31	84	53	90	78	57	73	87	
COc1ccc2sc(NC(=O)c3ccc(NC(C)=O)cc3)nc2c1 [MS:LY-2-77]						74						
CC(=O)NC(C)C(=O)Nc1nc2ccc(C(F)(F)F)cc2s1 (stereo not shown) [Compound 03-80]						27						
CC(=O)Nc1nc2ccc(C#N)cc2s1 [Compound 01-94]												remaining activity at 100 µM [1, 12]: 75%; remaining activity at 100 µM [10]: 52%; remaining activity at 100 µM [2, 12]: 118%; remaining activity at 100 µM [3, 12]: 34%; remaining activity at 100 µM [4, 12]: 58%; remaining activity at 100 µM [5, 12]: 53%; remaining activity at 100 µM [6, 12]: 62%; remaining activity at 100 µM [7, 12]: 18%; remaining activity at 100 µM [8, 12]: 86%; remaining activity at 100 µM [9, 12]: 11%
CC(=O)Nc1cccc(C(=O)Nc2nc3cc(O)ccc3s2)c1 [MS:LY-2-89]						32						
COc1ccc2sc(NC(=O)c3cccc(NC(C)=O)c3)nc2c1 [MS:LY-2-85]						45						
CC(=O)Nc1nc2ccc(C(F)(F)F)cc2s1 [Compound 01-90]												remaining activity at 100 µM [1, 12]: 89%; remaining activity at 100 µM [10]: 65%; remaining activity at 100 µM [2, 12]: 122%; remaining activity at 100 µM [3, 12]: 49%; remaining activity at 100 µM [4, 12]: 75%; remaining activity at 100 µM [5, 12]: 74%; remaining activity at 100 µM [6, 12]: 45%; remaining activity at 100 µM [7, 12]: 59%; remaining activity at 100 µM [8, 12]: 57%; remaining activity at 100 µM [9, 12]: 22%
CC(=O)Nc1ccc(C(=O)Nc2nc3cc(O)ccc3s2)cc1 [MS:LY-2-87]						54						
CC(=O)Nc1cccc(C(=O)Nc2nc3ccc(O)cc3s2)c1 [Compound 03-58]						31						
